From patent publication US10280169B2, “Biaryl bruton's tyrosine kinase inhibitors” (BIOGEN MA INC., priority 2013, dated 2019)

Target: T1, BTK (Homo sapiens, UniProt Q06187)
T1 construct: purchased Upstate 14-552
Assay: In vitro BTK kinase assay: BTK-POLYGAT-LS assay
Assay type: biochemical
Details: 10 uM ATP, read-out: IC50 (10 uMATP)

T1 sequence (Q06187 whole entry): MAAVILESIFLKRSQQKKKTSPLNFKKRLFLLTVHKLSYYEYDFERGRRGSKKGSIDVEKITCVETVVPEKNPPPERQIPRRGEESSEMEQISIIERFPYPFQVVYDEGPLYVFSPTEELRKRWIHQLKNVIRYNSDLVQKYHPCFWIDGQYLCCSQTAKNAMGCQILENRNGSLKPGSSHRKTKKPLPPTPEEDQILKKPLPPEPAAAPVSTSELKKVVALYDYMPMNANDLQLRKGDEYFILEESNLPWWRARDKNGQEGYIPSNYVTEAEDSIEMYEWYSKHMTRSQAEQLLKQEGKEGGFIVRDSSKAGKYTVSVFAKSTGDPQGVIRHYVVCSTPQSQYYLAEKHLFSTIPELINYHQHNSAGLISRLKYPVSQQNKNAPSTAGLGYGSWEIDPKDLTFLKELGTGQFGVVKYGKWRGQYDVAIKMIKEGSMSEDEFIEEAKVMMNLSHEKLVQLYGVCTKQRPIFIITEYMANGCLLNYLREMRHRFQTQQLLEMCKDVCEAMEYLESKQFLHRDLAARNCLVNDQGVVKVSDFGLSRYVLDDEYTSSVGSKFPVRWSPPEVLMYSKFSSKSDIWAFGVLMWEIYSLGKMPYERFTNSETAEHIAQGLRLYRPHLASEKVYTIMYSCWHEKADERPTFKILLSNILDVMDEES

IC50 [nM] | SMILES
< 10 | Cc1cc(-c2ncnc3[nH]c(-c4cnn(C)c4)cc23)ccc1CNC(=O)c1cc2c(s1)CCOC2 [Example I-33, N-(2-methyl-4-(6-(1-methyl-1H-pyrazol-4-yl)-7H-pyrrolo[2,3-d]pyrimidin-4-yl)benzyl)-6,7-dihydro-4H-thieno[3,2-c]pyran-2-carboxamide]
< 10 | Cc1cc(-c2ncnc3[nH]ccc23)ccc1C(C)NC(=O)c1nc2c(s1)CCCC2 (centres unmarked) [Example I-77, N-(1-(2-methyl-4-(7H-pyrrolo[2,3-d]pyrimidin-4-yl)phenyl)ethyl)-4,5,6,7-tetrahydrobenzo[d]thiazole-2-carboxamide]
10 to 99 | CC(C)c1csc(C(=O)NC2CCCc3cc(-c4ncnc5[nH]ncc45)ccc32)n1 (centres unmarked) [Example I-96, N-(6-(1H-pyrazolo[3,4-d]pyrimidin-4-yl)-1,2,3,4-tetrahydronaphthalen-1-yl)-4-isopropylthiazole-2-carboxamide]
100 to 999 | Cc1nc(C(=O)NC2CCCc3cc(-c4ncnc5[nH]ncc45)ccc32)sc1C (centres unmarked) [Example I-95, N-(6-(1H-pyrazolo[3,4-d]pyrimidin-4-yl)-1,2,3,4-tetrahydronaphthalen-1-yl)-4,5-dimethylthiazole-2-carboxamide]
100 to 999 | CC(C)(C)c1ccc(C(=O)NC2COCc3cc(-c4ncnc5[nH]ccc45)ccc32)nc1 (centres unmarked) [Example I-82, N-(7-(7H-pyrrolo[2,3-d]pyrimidin-4-yl)isochroman-4-yl)-5-(tert-butyl)picolinamide]
100 to 999 | O=C(NCc1ncc(-c2ncnc3[nH]ncc23)cc1F)c1cc2c(s1)CCCC2 [Example I-109, N-((3-fluoro-5-(1H-pyrazolo[3,4-d]pyrimidin-4-yl)pyridin-2-yl)methyl)-4,5,6,7-tetrahydrobenzo[b]thiophene-2-carboxamide]
10 to 99 | O=C(NCc1ccc(-c2ncnc3[nH]ncc23)cc1C(F)(F)F)c1nc2c(s1)CCCC2 [Example I-108, N-(4-(1H-pyrazolo[3,4-d]pyrimidin-4-yl)-2-(trifluoromethyl)benzyl)-4,5,6,7-tetrahydrobenzo[d]thiazole-2-carboxamide]
10 to 99 | O=C(NC1CCCc2cc(-c3ncnc4[nH]ncc34)ccc21)c1ccc(Cl)c(Cl)c1 (centres unmarked) [Example I-93, N-(6-(1H-pyrazolo[3,4-d]pyrimidin-4-yl)-1,2,3,4-tetrahydronaphthalen-1-yl)-3,4-dichlorobenzamide]
10 to 99 | CC(C)(C)c1ccc(C(=O)NCc2ccc(-c3ncnc4[nH]ccc34)cc2C#N)nc1 [Example I-6, 5-(tert-butyl)-N-(2-cyano-4-(7H-pyrrolo[2,3-d]pyrimidin-4-yl)benzyl)picolinamide]
100 to 999 | CC(C)(C)c1ccc(C(=O)NCc2ccc(-c3ncnc4[nH]ncc34)cc2)cc1 [Example I-84, N-(4-(1H-pyrazolo[3,4-d]pyrimidin-4-yl)benzyl)-4-(tert-butyl)benzamide]
100 to 999 | CC(C)(C)c1ccc(C(=O)NC2CCCc3cc(-c4ncnc5[nH]ncc45)ccc32)nc1 (centres unmarked) [Example I-131, N-(6-(1H-pyrazolo[3,4-d]pyrimidin-4-yl)-1,2,3,4-tetrahydronaphthalen-1-yl)-5-(tert-butyl)picolinamide]
1000 to 10000 | NC(=O)C(NC(=O)c1cc2c(s1)CCCC2)c1ccc(-c2ncnc3[nH]ncc23)cc1 (centres unmarked) [Example I-151, N-(1-(4-(1H-pyrazolo[3,4-d]pyrimidin-4-yl)phenyl)-2-amino-2-oxoethyl)-4,5,6,7-tetrahydrobenzo[b]thiophene-2-carboxamide]
< 10 | O=C(NC1CCCc2cc(-c3ncnc4[nH]ncc34)ccc21)c1cc2ccccc2s1 (centres unmarked) [Example I-120, N-(6-(1H-pyrazolo[3,4-d]pyrimidin-4-yl)-1,2,3,4-tetrahydronaphthalen-1-yl)benzo[b]thiophene-2-carboxamide]
10 to 99 | Cc1cc(-c2ncnc3nc(N4CCCC4C(=O)O)[nH]c23)ccc1CNC(=O)c1cnc(C(C)(C)C)s1 (centres unmarked) [Example I-55, 1-(6-(4-((2-(tert-butyl)thiazole-5-carboxamido)methyl)-3-methylphenyl)-7H-purin-8-yl)pyrrolidine-2-carboxylic acid]
10 to 99 | CCc1cc(-c2ncnc3[nH]ccc23)ccc1CNC(=O)c1ccc(C(C)(C)C)cc1 [Example I-10, 4-(tert-butyl)-N-(2-ethyl-4-(7H-pyrrolo[2,3-d]pyrimidin-4-yl)benzyl)benzamide]
100 to 999 | Cn1c(C(=O)NC2CCCc3cc(-c4ncnc5[nH]ncc45)ccc32)nc2ccccc21 (centres unmarked) [Example I-101, N-(6-(1H-pyrazolo[3,4-d]pyrimidin-4-yl)-1,2,3,4-tetrahydronaphthalen-1-yl)-1-methyl-1H-benzo[d]imidazole-2-carboxamide]
1000 to 10000 | Cc1c(-c2ncnc3[nH]ccc23)ccc2c1CCCC2NC(=O)c1ccc(C(C)(C)C)cc1 (centres unmarked) [Compound I-155]

IC50 [nM] | SMILES
100 to 999 | Cc1cc(-c2ncnc3cc[nH]c23)cnc1CNC(=O)c1cc2c(s1)CCCC2 [Example I-140, N-((3-methyl-5-(5H-pyrrolo[3,2-d]pyrimidin-4-yl)pyridin-2-yl)methyl)-4,5,6,7-tetrahydrobenzo[b]thiophene-2-carboxamide]
1000 to 10000 | CC(C)(C)c1ncc(C(=O)N[C@H]2CCCc3cc(-c4ccnc5[nH]ncc45)cnc32)s1 [Example I-152, (S)—N-(3-(1H-pyrazolo[3,4-b]pyridin-4-yl)-5,6,7,8-tetrahydroquinolin-8-yl)-2-(tert-butyl)thiazole-5-carboxamide]
1000 to 10000 | CC(C)(C)c1ccc(C(=O)NCc2ccc(-c3ncnc4[nH]ccc34)cc2C(N)=O)nc1 [Example I-7, 5-(tert-butyl)-N-(2-carbamoyl-4-(7H-pyrrolo[2,3-d]pyrimidin-4-yl)benzyl)picolinamide]
1000 to 10000 | CC(C)C(NC(=O)c1cc2c(s1)CCCC2)c1ccc(-c2ncnc3[nH]ncc23)cc1 (centres unmarked) [Example I-149, N-(1-(4-(1H-pyrazolo[3,4-d]pyrimidin-4-yl)phenyl)-2-methylpropyl)-4,5,6,7-tetrahydrobenzo[b]thiophene-2-carboxamide]
10 to 99 | Cc1cc(-c2ncnc3cc[nH]c23)ccc1C(C)NC(=O)c1cnc(C(C)(C)C)s1 (centres unmarked) [Example I-134, 2-(tert-butyl)-N-(1-(2-methyl-4-(5H-pyrrolo[3,2-d]pyrimidin-4-yl)phenyl)ethyl)thiazole-5-carboxamide]
< 10 | CC(C)(C)c1ccc(C(=O)NCc2ccc(-c3ncnc4[nH]c(-c5ccc(C(=O)N6CCOCC6)cc5)cc34)cc2)cc1 [Example I-111, 4-(tert-butyl)-N-(4-(6-(4-(morpholine-4-carbonyl)phenyl)-7H-pyrrolo[2,3-d]pyrimidin-4-yl)benzyl)benzamide]
< 10 | CC(C)OC1CN(C(=O)NC2CCCc3cc(-c4ncnc5[nH]c(-c6cnn(C)c6)cc45)ccc32)C1 (centres unmarked) [Example I-158, 3-isopropoxy-N-(6-(6-(1-methyl-1H-pyrazol-4-yl)-7H-pyrrolo[2,3-d]pyrimidin-4-yl)-1,2,3,4-tetrahydronaphthalen-1-yl)azetidine-1-carboxamide]
10 to 99 | O=C(NCc1ccc(-c2ccnc3[nH]ccc23)nc1)c1cc2c(s1)CCCC2 [Example I-73, N-((6-(1H-pyrrolo[2,3-b]pyridin-4-yl)pyridin-3-yl)methyl)-4,5,6,7-tetrahydrobenzo[b]thiophene-2-carboxamide]
100 to 999 | CC(C)(C)c1ccc(C(=O)NCc2ccc(-c3ncnc4[nH]ccc34)cc2)nc1 [Example I-68, N-(4-(7H-pyrrolo[2,3-d]pyrimidin-4-yl)benzyl)-5-(tert-butyl)picolinamide]
100 to 999 | CC(C)(C)c1ccc(C(=O)NCc2ccc(-c3ncnc4[nH]ccc34)cc2)cn1 [Example I-67, N-(4-(7H-pyrrolo[2,3-d]pyrimidin-4-yl)benzyl)-6-(tert-butyl)nicotinamide]
10 to 99 | CC(NC(=O)c1cc2c(s1)CCCC2)c1ccc(-c2ncnc3[nH]ccc23)cc1C(F)(F)F (centres unmarked) [Example I-80, N-(1-(4-(7H-pyrrolo[2,3-d]pyrimidin-4-yl)-2-(trifluoromethyl)phenyl)ethyl)-4,5,6,7-tetrahydrobenzo[b]thiophene-2-carboxamide]
100 to 999 | CC(C)(C)c1ncc(C(=O)N[C@@H]2CCCc3cc(-c4ccnc5[nH]ncc45)cnc32)s1 [Example I-144, (R)—N-(3-(1H-pyrazolo[3,4-b]pyridin-4-yl)-5,6,7,8-tetrahydroquinolin-8-yl)-2-(tert-butyl)thiazole-5-carboxamide]
> 10000 | CC(C)(C)c1ccc(C(=O)NC2CCc3cc(-c4ncnc5[nH]ccc45)ccc32)cc1 (centres unmarked) [Example I-154, N-(5-(7H-pyrrolo[2,3-d]pyrimidin-4-yl)-2,3-dihydro-1H-inden-1-yl)-4-(tert-butyl)benzamide]
< 10 | CC(NC(=O)c1cnc(C(C)(C)C)s1)c1ccc(-c2ncnc3cc(-c4cnn(C)c4)[nH]c23)cc1 (centres unmarked) [Example I-114, 2-(tert-butyl)-N-(1-(4.-(6-(1-methyl-1H-pyrazol-4-yl)-5H-pyrrolo[3,2-d]pyrimidin-4-yl)phenyl)ethyl)thiazole-5-carboxamide]
10 to 99 | Cc1cc(-c2ncnc3c2cc(-c2cnn(C)c2)n3C)ccc1CNC(=O)c1cnc(C(C)(C)C)s1 [Example I-27, 2-(tert-butyl)-N-(2-methyl-4-(7-methyl-6-(1-methyl-1H-pyrazol-4-yl)-7H-pyrrolo[2,3-d]pyrimidin-4-yl)benzyl)thiazole-5-carboxamide]
> 10000 | O=C(NCc1ccc(-c2ncnc3[nH]ccc23)cc1)C1Cc2ccccc2C1 [Example I-60, N-(4-(7H-pyrrolo[2,3-d]pyrimidin-4-yl)benzyl)-2,3-dihydro-1H-indene-2-carboxamide]
100 to 999 | O=C(NCc1ccc(-c2ncnc3[nH]ccc23)cc1)c1ccc2c(n1)CCCC2 [Example I-58, N-(4-(7H-pyrrolo[2,3-d]pyrimidin-4-yl)benzyl)-5,6,7,8-tetrahydroquinoline-2-carboxamide]

SMILES | IC50 [nM]
Cn1cc(-c2cc3c(-c4ccc5c(c4)CCCCC5NC(=O)N4CC(OC(C)(C)C)C4)ncnc3[nH]2)cn1 (centres unmarked) [Example I-164, 3-(tert-butoxy)-N-(2-(6-(1-methyl-1H-pyrazol-4-yl)-7H-pyrrolo[2,3-d]pyrimidin-4-yl)-6,7,8,9-tetrahydro-5H-benzo[7]annulen-5-yl)azetidine-1-carboxamide] | < 10
